# What was measured:
# [1] = Biodistribution of cytochalasin B after i.p. injection (HPLC); assay type: in vivo, mice; details: 50 mg/kg i.p.
# Protocol: Biodistribution of Cytochalasin B. To determine the biodistribution of cytochalasin B, mice were injected (i.p.) with 50 mg/kg cytochalasin B. Control mice were injected with DMSO/Tween 20/carboxymethyl cellulose (“vehicle”). The mice were sacrificed at 3, 12, 24 and 72 hours after cytochalasin B or vehicle administration. Organs were removed, homogenized, extracted and the amount of cytochalasin B in tissues quantitated by HPLC. About 75% of the cytochalasin B remained in the peritoneal cavity or at the injection site.
# [2] = Tissue distribution of cytochalasin B after intravenous administration (TLC); assay type: in vivo, mice
# Protocol: Cytochalasin B was also administered intravenously to mice at 3.5 mg/kg (in methanol or Tween 20/carboxymethyl cellulose). Mice were sacrificed at 2 minutes, 15 minutes, 30 minutes, 3 hours and 12 hours after cytochalasin B administration and tissue extracts analyzed for cytochalasin by TLC. The maximal recovery of cytochalasin B from tissue extracts was 32%.
# [3] = system: balloon traumatized pig femoral artery; experiment: Sustained release adventitial wraps on balloon traumatized pig femoral artery (Table 16, Group 12); assay type: in vivo; details: Group 12: 30% wt/wt loaded silicone wraps
# From the text: To determine the efficacy of the local, sustained release dosage forms of cytochalasin B or taxol to inhibit restenosis, cytochalasin B or taxol in a supporting structure, e.g., a “wrap,” was applied to the adventitial tissue surrounding a balloon traumatized rabbit carotid artery (Groups 1-11) or a balloon traumatized pig femoral artery (Group 12) (Table 16).
# While there was intimal proliferation in the arteries 3 weeks later, the proliferation was still less than the proliferation observed for the controls.
# [4] = system: balloon traumatized left carotid artery; experiment: Inter-arterial infusion of crystalline cytochalasin B in balloon traumatized rat carotid artery; assay type: in vivo, Sprague-Dawley rats
# Protocol: Another study employed twenty, male, Sprague-Dawley rats. The rats underwent balloon trauma to their left carotid artery, followed by inter-arterial infusion of a solution containing 1 mg crystalline cytochalasin B in […] vehicle (Hanks sterile salt solution with 0.5% Cremophor) or a diluent (saline) control. Animals were sacrificed immediately after infusion, and 2, 4, 7 and 14 days post-trauma and infusion. Post-sacrifice, the left and the right (control) carotid arteries were removed. Samples of arteries were obtained for quantitation of ^3H-cytochalasin B by oxidation and scintillation counting, histopathology, autoradiography and vascular morphometry. Histopathology documented uniform, circumferential balloon trauma in the arterial wall of the left carotid arteries.
# [5] = system: balloon traumatized left carotid artery
# [6] = system: Vascular smooth muscle cells (BO54); experiment: Scratch-migration assay; assay type: cell-based, baboon; set-up: key: −=no toxicity; +1=minimal; +2=mild; +3=moderate; +4=marked toxicity; details: Continuous Exposure
# Protocol: (§1) Scratch assays to determine the extent of smooth muscle cell migration inhibition by cytochalasin B were performed in accordance with the following protocol:
# (§2) Vascular smooth muscle cells (BO54) were derived from explants of baboon aortic smooth muscle, as described in Example 10. The cells were grown in flat bottom, six well tissue culture plates, which hold about 5 ml of medium. The vascular smooth muscle cells were plated at 200,000 cells/well and placed at 37° C. in a humidified 5% CO2 incubator for 18 hours. The wells were then scratched with a sterile portion of a single edge razor blade that was held by clamp or pliers and was brought aseptically into contact with the bottom of the well at a 90° angle. The cells from a small area along the scratch were removed by a sterile cotton tipped applicator while the blade was in contact with the bottom of the well. After incubation, the presence of cells in the “scratched” area is indicative of cell migration across the scratch line.
# (§3) Briefly, a stock solution of cytochalasin B (Sigma Chemical Co.) in dimethyl sulfoxide (DMSO) at 1 mg/ml was prepared. Test dilutions of cytochalasin B or control medium were added. Each experiment included two sets of plates:
# (§4) A set: Test agent exposure for 1, 3, 6, 8 and 10 days only; and
# (§5) B set: Test agent exposure for 1, 3, 6, 8 and 10 days, followed by a seven day recovery time with control medium.
# Both sets of plates were fixed (10% formalin in PBS) and stained (0.02% crystal violet) at the end of the timed exposures. Test concentrations for cytochalasin B were 1, 0.1 and 0.01 μg/ml, and a negative medium control was included. […]
# In this Table, “M” indicates Migration Grade, wherein −=no migration; +1=minimal; +2=mild; +3=moderate; and +4=marked (maximum density; limit of cell contact inhibition) migration of vascular smooth muscle cells into the cleared area adjacent to the scratch. […] The migration results are expressed as “Grade in the Cleared Area of the Well/Grade in an Undisturbed Region of the Well.” The toxicity values represent a grade for all cells in each well.
# [7] = system: Vascular smooth muscle cells (BO54); experiment: Scratch-migration assay; assay type: cell-based, baboon; set-up: key: −=no migration; +1=minimal; +2=mild; +3=moderate; +4=marked (maximum density; limit of cell contact inhibition) migration
# Protocol: as §1, §2, §3, §4, §5
# Both sets of plates were fixed (10% formalin in PBS) and stained (0.02% crystal violet) at the end of the timed exposures. Test concentrations for cytochalasin B were 1, 0.1 and 0.01 μg/ml, and a negative medium control was included. Fresh medium and drug were supplied 3 times per week.
# In this Table, “M” indicates Migration Grade, wherein −=no migration; +1=minimal; +2=mild; +3=moderate; and +4=marked (maximum density; limit of cell contact inhibition) migration of vascular smooth muscle cells into the cleared area adjacent to the scratch. In this Table, “T” denotes a morphological Toxicity Grade, wherein −=no toxicity; +1=minimal; +2=mild; +3=moderate; and +4=marked toxicity. The migration results are expressed as “Grade in the Cleared Area of the Well/Grade in an Undisturbed Region of the Well.” The toxicity values represent a grade for all cells in each well.
smiles,measurement,setting,value
C=C1[C@@H](C)[C@H]2[C@H](Cc3ccccc3)NC(=O)[C@]23OC(=O)/C=C/[C@H](O)CCC[C@@H](C)C/C=C/[C@H]3[C@@H]1O [cytochalasin B],organ with the highest amount,[1],liver
same,acute toxicity,[2]; 3.5 mg/kg intravenously,no acute toxicity
same,maximal recovery from tissue extracts,[2]; 3.5 mg/kg intravenously,32%
same,tissue localization,[2]; 3.5 mg/kg intravenously,localized to the lung and the injection site
same,levels in tissues,[2]; 12 hours after administration,very low levels
same,intimal proliferation,[3],significantly inhibited intimal proliferation for the first two weeks
same,amount present over the treated length of artery,[4]; day 0,approximately 8 ug
same,amount present over the treated length of artery,[4]; day 2,less than 2 ng
same,crystals by autoradiography,[4]; day 4,not detectable by autoradiography
same,mean luminal area and neointimal area vs diluent control,[4]; five treated rats,higher mean luminal area and a smaller neointimal area
same,neointima formation vs diluent treated rats,[4]; morphometric analysis,no statistically significant reduction in neointima formation
same,morphometry vs untreated controls,[5]; 14 days,no statistical difference from the controls
same,post-surgical weight gain,[5]; periadventitial crystals,delay in post-surgical weight gain
same,toxicity at the surgical site,[5]; periadventitial crystals,significant toxicity at the surgical site
same,Toxicity Grade,"[6]; Day 6, 1.0 μg/mL",+4
same,Toxicity Grade,"[6]; Day 8, 1.0 μg/mL",+4
same,Toxicity Grade,"[6]; Day 10, 1.0 μg/mL",+4
same,Toxicity Grade,"[7]; 7-day Recovery Post Exposure, Day 1, 1.0 μg/mL",+2
same,Toxicity Grade,"[7]; 7-day Recovery Post Exposure, Day 3, 1.0 μg/mL",+1
same,Toxicity Grade,"[7]; 7-day Recovery Post Exposure, Day 6, 1.0 μg/mL",+3
same,Toxicity Grade,"[7]; 7-day Recovery Post Exposure, Day 8, 1.0 μg/mL",+3
same,Toxicity Grade,"[7]; 7-day Recovery Post Exposure, Day 10, 1.0 μg/mL",+3
same,Toxicity Grade,"[7]; Continuous Exposure, Day 1, 1.0 μg/mL",+3
same,Toxicity Grade,"[7]; Continuous Exposure, Day 3, 0.1 μg/mL",+1
same,Toxicity Grade,"[7]; Continuous Exposure, Day 3, 1.0 μg/mL",+3
same,Toxicity Grade,"[7]; Continuous Exposure, Day 6, 0.1 μg/mL",+1
same,Toxicity Grade,"[7]; Continuous Exposure, Day 8, 0.1 μg/mL",+1
same,Toxicity Grade,"[7]; Continuous Exposure, Day 10, 0.1 μg/mL",+1

# Reference: patent US6663881B2 (priority 1993, dated 2003)
